{
  "source": "patent EP0249301A1",
  "about": "“Pyrido[2,3-b]indoles” (BEECHAM GROUP PLC, priority 1986, dated 1987)",
  "data": [
    {"tested_on": "Rats", "experiment": "Geller-Seifter procedure (conflict test for anxiolytic properties)", "format": "in vivo", "conditions": "Rattus norvegicus, 0.5 h; dose 50 mg/kg po, 30 min before testing; percentage increase in square root of total lever presses in the FR5 'conflict' session; read-out: increase in responding in the 'conflict' session", "procedure": "Potential anxiolytic properties have been evaluated using the Geller-Seifter procedure based on that originally described by Geller and Seifter, (1960) Psychopharmacologia, 1, 482-492.\nRats are trained on a variable interval 30 sec schedule (VI30) to press a lever in order to obtain food reward. The 5 min sessions of the V130 schedule alternate with 2-5 min of a schedule (FR5) in which every 5th lever press is followed by presentation of a food pellet paired with a 0.5 sec mild footshock. The total study lasts approximately 30 mins. Rats typically respond with high rates of lever pressing under the VI30 schedule and low response rats under the Fx5 'conflict' session. Anxiolytic drugs increase the suppressed response rates of rats in 'conflict' session.\nDrugs are administered intraperitoneally or orally to groups of 3-8 rats 30 min before testing.\nThe results are expressed as the percentage increase in square root of the total number of lever presses in the FR5 'conflict' session. Square root transformation is necessary to normalise the data for statistical analysis using parametric methods.", "units": {"change in vivo at 50 mg/kg": "%"}, "values": [
      {"smiles": "COC(=O)c1c(C)nc2[nH]c3ccccc3c2c1N", "note": "[Example 1, 4-Amino-2-methyl-9H-pyrido[2,3-b]indole-3-carboxylic acid, methyl ester]", "change in vivo at 50 mg/kg": 143},
      {"smiles": "CNc1c(C(=O)OC)c(C)nc2c1c1ccccc1n2C", "note": "[Example 8, 2,9-Dimethyl-4-methylamino-9H-pyrido[2,3-b]indole-3-carboxylic acid, methyl ester]", "change in vivo at 50 mg/kg": 112},
      {"smiles": "C=CCOC(=O)c1c(C)nc2c(c1N)c1ccccc1n2C", "note": "[Example 11, 4-Amino-2,9-dimethyl-9H-pyrido[2,3-b]indole-3-carboxylic acid, 2-propenyl ester]", "change in vivo at 50 mg/kg": 138},
      {"smiles": "C#CCOC(=O)c1c(C)nc2c(c1N)c1ccccc1n2C", "note": "[Example 14, 4-Amino-2,9-dimethyl-9H-pyrido[2,3-b]indole-3-carboxy-lie acid, 2-propynyl ester]", "change in vivo at 50 mg/kg": 102},
      {"smiles": "CCCOC(=O)c1c(C)nc2c(c1N)c1ccccc1n2C", "note": "[Example 24, 4-Amino-2,9-dimethyl-9H-pyrido[2,3,b]indole-3-carboxylic acid, n-propyl ester]", "change in vivo at 50 mg/kg": 78}
    ]}
  ]
}
